Data from ChEMBL document CHEMBL3882388, “Pharmaceutical Compositions Comprising Beta-Lactam Antibiotic, Sulbactam and Beta-Lactamase Inhibitor” (2014).
Values after ≈ are worked out from the molar mass of the structure shown.

Assays:
[1] = target: Beta-lactamase (Acinetobacter baumannii) (UniProt Q8RLA6); experiment: Inhibition of beta-lactamase in extended-spectrum b-lactamase producing Acinetobacter baumannii NCTC 13301 assessed as potentiation of cefepime-induced antibacterial activity by measuring cefepime MIC at 4 to 8 ug/ml incubated for 16 to 20 hrs by CLSI method
Beta-lactamase (Acinetobacter baumannii), sequence (Q8RLA6 as listed by the source): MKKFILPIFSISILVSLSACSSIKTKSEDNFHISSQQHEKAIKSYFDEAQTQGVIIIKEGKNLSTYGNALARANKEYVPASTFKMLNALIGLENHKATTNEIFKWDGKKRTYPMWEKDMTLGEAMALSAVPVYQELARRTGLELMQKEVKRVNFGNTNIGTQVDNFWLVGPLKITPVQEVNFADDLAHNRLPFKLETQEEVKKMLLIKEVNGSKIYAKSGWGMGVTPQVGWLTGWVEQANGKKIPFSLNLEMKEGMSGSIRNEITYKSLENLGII

[2] = test system: Acinetobacter baumannii; experiment: Antibacterial activity against extended-spectrum b-lactamase producing Acinetobacter baumannii NCTC 13304 incubated for 16 to 20 hrs by CLSI method; assay type: functional
[3] = test system: Acinetobacter baumannii; experiment: Antibacterial activity against extended-spectrum b-lactamase producing Acinetobacter baumannii NCTC 13305 incubated for 16 to 20 hrs by CLSI method; assay type: functional
[4] = target: Beta-lactamase (Acinetobacter baumannii) (UniProt Q8RLA6); experiment: Inhibition of beta-lactamase in extended-spectrum b-lactamase producing Acinetobacter baumannii S-3 assessed as potentiation of cefepime-induced antibacterial activity by measuring cefepime MIC at 4 to 8 ug/ml incubated for 16 to 20 hrs by CLSI method
[5] = target: Beta-lactamase (Acinetobacter baumannii) (UniProt Q8RLA6); experiment: Inhibition of beta-lactamase in extended-spectrum b-lactamase producing Acinetobacter baumannii S-4 assessed as potentiation of cefepime-induced antibacterial activity by measuring cefepime MIC at 4 to 8 ug/ml incubated for 16 to 20 hrs by CLSI method
[6] = test system: Acinetobacter baumannii; experiment: Antibacterial activity against extended-spectrum b-lactamase producing Acinetobacter baumannii S-8 incubated for 16 to 20 hrs by CLSI method; assay type: functional
[7] = test system: Acinetobacter baumannii; experiment: Antibacterial activity against extended-spectrum b-lactamase producing Acinetobacter baumannii S-10 incubated for 16 to 20 hrs by CLSI method; assay type: functional
[8] = target: Beta-lactamase (Acinetobacter baumannii) (UniProt Q8RLA6); experiment: Inhibition of beta-lactamase in extended-spectrum b-lactamase producing Acinetobacter baumannii NCTC 13301 assessed as potentiation of cefpirome-induced antibacterial activity by measuring cefpirome MIC at 4 to 8 ug/ml incubated for 16 to 20 hrs by CLSI method
[9] = target: Beta-lactamase (Acinetobacter baumannii) (UniProt Q8RLA6); conditions: NCTC 13301
[10] = target: Beta-lactamase (Acinetobacter baumannii) (UniProt Q8RLA6); conditions: NCTC 13301; remark: listed apart in the source
[11] = target: Beta-lactamase (Acinetobacter baumannii) (UniProt Q8RLA6); conditions: NCTC 13304
[12] = target: Beta-lactamase (Acinetobacter baumannii) (UniProt Q8RLA6); conditions: NCTC 13304; remark: listed apart in the source
[13] = target: Beta-lactamase (Acinetobacter baumannii) (UniProt Q8RLA6); conditions: NCTC 13304; remark: listed apart in the source
[14] = target: Beta-lactamase (Acinetobacter baumannii) (UniProt Q8RLA6); conditions: NCTC 13305
[15] = target: Beta-lactamase (Acinetobacter baumannii) (UniProt Q8RLA6); conditions: NCTC 13305; remark: listed apart in the source
[16] = target: Beta-lactamase (Acinetobacter baumannii) (UniProt Q8RLA6); conditions: S-3
[17] = target: Beta-lactamase (Acinetobacter baumannii) (UniProt Q8RLA6); conditions: S-3; remark: listed apart in the source
[18] = target: Beta-lactamase (Acinetobacter baumannii) (UniProt Q8RLA6); conditions: S-3; remark: listed apart in the source
[19] = target: Beta-lactamase (Acinetobacter baumannii) (UniProt Q8RLA6); conditions: S-4
[20] = target: Beta-lactamase (Acinetobacter baumannii) (UniProt Q8RLA6); conditions: S-4; remark: listed apart in the source
[21] = target: Beta-lactamase (Acinetobacter baumannii) (UniProt Q8RLA6); conditions: S-4; remark: listed apart in the source
[22] = target: Beta-lactamase (Acinetobacter baumannii) (UniProt Q8RLA6); conditions: S-8
[23] = target: Beta-lactamase (Acinetobacter baumannii) (UniProt Q8RLA6); conditions: S-8; remark: listed apart in the source
[24] = target: Beta-lactamase (Acinetobacter baumannii) (UniProt Q8RLA6); conditions: S-8; remark: listed apart in the source
[25] = target: Beta-lactamase (Acinetobacter baumannii) (UniProt Q8RLA6); conditions: S-10
[26] = target: Beta-lactamase (Acinetobacter baumannii) (UniProt Q8RLA6); conditions: S-10; remark: listed apart in the source
[27] = target: Beta-lactamase (Acinetobacter baumannii) (UniProt Q8RLA6); conditions: S-15
[28] = target: Beta-lactamase (Acinetobacter baumannii) (UniProt Q8RLA6); conditions: S-15; remark: listed apart in the source
[29] = target: Beta-lactamase (Acinetobacter baumannii) (UniProt Q8RLA6); conditions: NCTC 13301; remark: listed apart in the source
[30] = target: Beta-lactamase (Acinetobacter baumannii) (UniProt Q8RLA6); conditions: NCTC 13301; remark: listed apart in the source
[31] = target: Beta-lactamase (Acinetobacter baumannii) (UniProt Q8RLA6); conditions: NCTC 13304; remark: listed apart in the source
[32] = target: Beta-lactamase (Acinetobacter baumannii) (UniProt Q8RLA6); conditions: NCTC 13304; remark: listed apart in the source
[33] = target: Beta-lactamase (Acinetobacter baumannii) (UniProt Q8RLA6); conditions: NCTC 13304; remark: listed apart in the source
[34] = target: Beta-lactamase (Acinetobacter baumannii) (UniProt Q8RLA6); conditions: NCTC 13305; remark: listed apart in the source
[35] = target: Beta-lactamase (Acinetobacter baumannii) (UniProt Q8RLA6); conditions: NCTC 13305; remark: listed apart in the source
[36] = target: Beta-lactamase (Acinetobacter baumannii) (UniProt Q8RLA6); conditions: NCTC 13305; remark: listed apart in the source
[37] = target: Beta-lactamase (Acinetobacter baumannii) (UniProt Q8RLA6); conditions: NCTC 13305; remark: listed apart in the source
[38] = target: Beta-lactamase (Acinetobacter baumannii) (UniProt Q8RLA6); conditions: S-4; remark: listed apart in the source
[39] = target: Beta-lactamase (Acinetobacter baumannii) (UniProt Q8RLA6); conditions: S-4; remark: listed apart in the source
[40] = target: Beta-lactamase (Acinetobacter baumannii) (UniProt Q8RLA6); conditions: S-4; remark: listed apart in the source
[41] = target: Beta-lactamase (Acinetobacter baumannii) (UniProt Q8RLA6); conditions: S-8; remark: listed apart in the source
[42] = target: Beta-lactamase (Acinetobacter baumannii) (UniProt Q8RLA6); conditions: S-8; remark: listed apart in the source
[43] = target: Beta-lactamase (Acinetobacter baumannii) (UniProt Q8RLA6); conditions: S-8; remark: listed apart in the source
[44] = target: Beta-lactamase (Acinetobacter baumannii) (UniProt Q8RLA6); conditions: S-10; remark: listed apart in the source
[45] = target: Beta-lactamase (Acinetobacter baumannii) (UniProt Q8RLA6); conditions: S-15; remark: listed apart in the source

Structure (SMILES): NC(=O)[C@@H]1CC[C@@H]2CN1C(=O)N2OS(=O)(=O)O
- MIC [1]: > 32 µg/mL
- MIC [2]: > 64 µg/mL
- MIC [3]: > 64 µg/mL
- MIC [4]: 32 µg/mL
- MIC [5]: 32 µg/mL
- MIC [6]: > 64 µg/mL
- MIC [7]: > 64 µg/mL
- MIC [8]: > 32 µg/mL
- MIC [9]: < 0.06 µg/mL
- MIC [10]: < 0.06 µg/mL
- MIC [11]: < 0.06 µg/mL
- MIC [12]: < 0.06 µg/mL
- MIC [13]: < 0.06 µg/mL
- MIC [14]: < 0.06 µg/mL
- MIC [15]: < 0.06 µg/mL
- MIC [16]: 4 µg/mL (≈ 15.1 µM)
- MIC [17]: 1 µg/mL (≈ 3.77 µM)
- MIC [18]: 0.5 µg/mL (≈ 1.89 µM)
- MIC [19]: 4 µg/mL (≈ 15.1 µM)
- MIC [20]: 1 µg/mL (≈ 3.77 µM)
- MIC [21]: 0.5 µg/mL (≈ 1.89 µM)
- MIC [22]: 8 µg/mL (≈ 30.2 µM)
- MIC [23]: 0.5 µg/mL (≈ 1.89 µM)
- MIC [24]: 0.5 µg/mL (≈ 1.89 µM)
- MIC [25]: < 0.03 µg/mL
- MIC [26]: < 0.03 µg/mL
- MIC [27]: 8 µg/mL (≈ 30.2 µM)
- MIC [28]: 0.5 µg/mL (≈ 1.89 µM)
- MIC [29]: < 0.06 µg/mL
- MIC [30]: < 0.06 µg/mL
- MIC [31]: < 0.06 µg/mL
- MIC [32]: < 0.06 µg/mL
- MIC [33]: < 0.06 µg/mL
- MIC [34]: < 0.06 µg/mL
- MIC [35]: < 0.06 µg/mL
- MIC [36]: < 0.06 µg/mL
- MIC [37]: < 0.06 µg/mL
- MIC [38]: 4 µg/mL (≈ 15.1 µM)
- MIC [39]: 1 µg/mL (≈ 3.77 µM)
- MIC [40]: 0.5 µg/mL (≈ 1.89 µM)
- MIC [41]: 8 µg/mL (≈ 30.2 µM)
- MIC [42]: 0.5 µg/mL (≈ 1.89 µM)
- MIC [43]: 0.5 µg/mL (≈ 1.89 µM)
- MIC [44]: < 0.03 µg/mL
- MIC [45]: 8 µg/mL (≈ 30.2 µM)
